# From patent US9072732B2 (priority 2010, dated 2015)
# Assays:
# Hep G2 cells = conditions: niacin 0.5 mM 24 h, then ethanol 48 h in presence or absence of niacin
# Source text: Cellular fat accumulation was quantitated by nile red O staining and by measuring fluorescence intensity.
# [1] = system: high-fat-induced NAFLD in rats; assay: High-fat diet-induced NAFLD model in rats; conditions: 4 weeks
smiles,measurement,setting,value
"O=C(O)c1cccnc1 [niacin, nicotinic acid]",alcohol-induced fat accumulation,Hep G2 cells,significantly inhibited
same,serum cholesterol levels,"[1]; niacin 0.5% and 1% in high-fat diet, compared to rats fed high-fat diet",significantly decreased
same,body weight of rats,"[1]; niacin 0.5% or 1% in high-fat diet, compared to high-fat fed rats",no effect
same,serum triglyceride levels,"[1]; niacin in high-fat diet, compared to rats fed high-fat diet",significantly decreased
